Literature values in paper PMC12347832, “Multi-Component Synthesis of New Fluorinated-Pyrrolo[3,4-b]pyridin-5-ones Containing the 4-Amino-7-chloroquinoline Moiety and In Vitro–In Silico Studies Against Human SARS-CoV-2” (International Journal of Molecular Sciences, 2025).

System: SARS-CoV-2
Details: cited from earlier work

CCN(CC)CCCC(C)Nc1ccnc2cc(Cl)ccc12 (stereo not shown) [Chloroquine]
IC50: 1.13 µM
